What is called melting point is the temperature of the solid-liquid transition. `CC(=O)Nc1c(C(=O)c2cccc(OCc3ccccc3)c2)[nH]c2cc(Cl)ccc12` showed a melting point of 159 to 161 °C.
The figure for `Cc1ccc(-c2ccccc2C(=O)Nc2ccc(C(=O)N3C[C@H]4CCCN4c4ccccc43)cc2)cc1` is 228 to 230 °C; for `COc1ccc(-c2ccc(C(=O)Nc3ccc4cc(CN5CCCCCC5)cnc4c3C)cc2)cc1` it is 165 to 167 °C.
`N#Cc1ccc(-c2cc(C(=O)O)c(=O)n(Cc3ccccc3)n2)cc1`: the melting point fell in the range of 254 to 256 °C.
In the case of `COC(=O)c1cc2cc3c(cc2[nH]1)OCC(=O)N3` it was 188 to 196 °C.
On to `Cc1cccc2c1SC(C(F)(F)F)C(C(=O)O)=C2` (configuration not stated), for which the melting point was in the range of 224 to 225 °C.
The figure for `Cc1ccc(C2c3c(C)c(N4CCN(c5ccc([N+](=O)[O-])cc5)CC4)c(C)c(C)c3OC2(C)C)cc1` (configuration not stated) is 203 to 205 °C; for `CCOC(=O)C1=C(C)NC(C)=C(C(=O)OCC)C1c1ccccc1/C=C(\CC)C(=O)OCC` it is 92 to 94 °C.
In turn, `CCOC(=O)CCc1nc(-c2cc3ccccc3o2)cs1` came in with a melting point of 65 to 66 °C.
In the case of `CC(=O)c1c(C)[nH]c(C(C)CCC(C)c2[nH]c(C)c(C(C)=O)c2C)c1C` (configuration not stated) it was 263 to 268 °C; in that of `CCOC(=O)NCC(C)C(NC(=O)OCC)NC(=O)OCC` (configuration not stated), 138 to 140 °C.
In the case of `Cc1ccc(-c2nc(C(N)=O)cs2)cc1` it was 100 to 102 °C; in that of `CCN(CC)C(=O)COC(=O)/C=C/C(=O)OC`, 53 to 56 °C; in that of `Cc1cn(C)c2c1N(C(=O)CN(C)C)c1ccccc1NC2=O`, 219 to 220 °C.
`Cc1cc(N2C=CC(=O)CC2)nn2cnnc12`: the melting point lay in the range of 264 to 266 °C.
In the case of `Fc1ccc2ncn3ncnc3c2c1` it was 193 to 195 °C; in that of `Cc1ccc(-c2c(C(=O)NCc3cc(C(F)(F)F)cc(C(F)(F)F)c3)n(CCC(C)CO)c(=O)c3ncccc23)cc1` (racemic), 129 to 130 °C; in that of `COc1ccc2ccc(OC)c(C=O)c2c1`, 94 °C.
`CC1OC(=S)c2c(O)cccc21` (configuration not stated) showed a melting point of 39 to 41 °C.
The figure for `CN(c1nnc(C(F)(F)F)s1)C1CCN(Cc2cccc(F)c2)CC1` is 80.5 °C; for `c1cn(-c2cc(-n3ccnc3)ncn2)cn1` it is 243 to 244 °C.
In the case of `O=C(O)C1CCOc2c(Cl)cc(-c3ccccc3)cc21` (configuration not stated) it was 187 to 188 °C; in that of `COC(=O)C(Oc1ccc(NC(C)=O)cc1)c1ccc(Oc2ccc(Cl)cc2)cc1` (configuration not stated), 152 to 157 °C.
`N#Cc1cccc(C=Cc2cccc(F)c2)n1` had a melting point of 111 to 112 °C.
The figure for `Cc1cc(C)n2nc(Sc3ccccc3Cl)nc2n1` is 143 °C; for `c1ccc2c(c1)CCONC2` it is 190 to 192 °C.
In the case of `CN(C=O)CC1(N2CCCCC2)CCCCC1` it was 94 °C.
As to `COc1cc(C=C2OC(C)=CC2=O)ccc1O`, the melting point was 168 to 170 °C.
Molecule `CCCCCCc1ccc(C#Cc2ccc(Br)cc2)cc1` yielded a melting point of 67 °C.
The figure for `COC1=C(OC)C(=O)C(CCCCCCCCCCCCCCCC(=O)O)=C(C)C1=O` is 70 to 71 °C; for `COC(=S)c1ccc(C)c(C2=NOCC2)c1C` it is 109 to 111 °C; for `CC(CCc1ccc(O)cc1)NCC(O)c1cccc(Cl)c1` (configuration not stated) it is 103 to 110 °C.
Take `CC(C)[C@H](NC(=O)OCc1ccccc1)C(=O)NNS(=O)(=O)c1ccccc1`: the melting point fell in the range of 253 to 255 °C.
In the case of `COc1ccc(C(=O)Nc2ccccc2)cc1NCc1ccc(C)cc1` it was 184 to 186 °C; in that of `N#Cc1cnn(-c2ccc(OC(F)(F)F)cc2Cl)c1Br`, 83 °C; in that of `CC1CCc2ccc(NC(=O)C(F)(F)F)c3c(=O)c(C(=O)O)cn1c23` (configuration not stated), 301 to 303 °C.
In the case of `CCCCc1ncc(/C=C(\Cc2ccc(N)cc2)C(=O)O)n1Cc1ccccc1Cl` it was 191 to 192 °C.

The record behind these values is a melting point compilation (Tetko et al.; mined from patent text by program, amines drawn as free bases though some values may be those of a salt).
